Source: US8486919B2, “4-alkylresorcinol derivative and external preparation for skin containing the same” (Shiseido Company, Ltd., priority 2010, dated 2013)

Columns and labels:
Mouse B16 melanoma cells [1] = assay: Melanin production inhibition test; format: cell-based; conditions: 3 days, ratio to solvent-only group
Experimental: (§1) The melanin production inhibitory effect and the cytotoxicity was studied according to the following method.
(§2) (1) Inoculation of Cells and Addition of Test Substances
(§3) Mouse B16 melanoma cells were inoculated in a six well plate at 100,000 cells/well. The next day, test substance solutions (solvent: dimethylsulfoxide) were added thereto and then subjected to the melanin production inhibition test and cytotoxicity test.
(3) Melanin Production Inhibition Test
Three days after the addition of the test substance solution, the medium was removed by aspiration. The cells were washed with a buffer (50 mM phosphate buffer, pH6.8), and then lysed by addition of 1M NaOH to measure an absorbance at 475 nm. Using the value thus measured as a relative value of the melanin amount, a ratio of the melanin amount (%) of the test substance-added group to the test substance-absent group (group in which only the solvent was added) was calculated. The lower the ratio of the melanin amount, the higher the melanin production-inhibitory effect.

Mouse B16 melanoma cells [2] = assay: Cell proliferation test (cytotoxicity test, Alamar Blue); format: cell-based; conditions: 3 days, ratio to solvent-only group
Experimental: as §1, §2, §3
(2) Cell Proliferation Test
Three days after the addition of the test substance solution, the medium was removed by aspiration. Then 1 mL of EMEM medium containing 10% Alamar Blue solution was added, and a reaction was allowed to proceed at 37° C. After 30 minutes, 100 μL of the reaction mixture was transferred to a 96 well plate and fluorescence was measured at an excitation wavelength of 544 nm and a measurement wavelength of 590 nm. Using the value thus measured as a relative value of cell count, a ratio of the cell count (% cell count) of the test substance-added group to the test substance-absent group (group in which only the solvent was added) was calculated. The higher the % cell count, the lower the cytotoxicity.

[3] = final concentration of test compound 2.2 μM
[4] = final concentration of test compound 22 μM
[5] = final concentration of test compound 220 μM
[6] = final concentration of test compound 2.0 μM
[7] = final concentration of test compound 6.6 μM
[8] = final concentration of test compound 66 μM
[9] = final concentration of test compound 1.6 μM
[10] = final concentration of test compound 16 μM
[11] = final concentration of test compound 52 μM
[12] = final concentration of test compound 1.0 μM
[13] = final concentration of test compound 10 μM
[14] = final concentration of test compound 33 μM
[15] = final concentration of test compound 9.6 μM
[16] = final concentration of test compound 32 μM
[17] = final concentration of test compound 0.9 μM
[18] = final concentration of test compound 8.5 μM
[19] = final concentration of test compound 28 μM

**Q.** What does the source list for `CCc1ccc(O)cc1O` [Comparative Compound 1, 4-ethylresorcinol]?
**A.** Melanin Amount Ratio (%) (Mouse B16 melanoma cells [1]; [3]): 69%; Melanin Amount Ratio (%) (Mouse B16 melanoma cells [1]; [4]): 24%; Melanin Amount Ratio (%) (Mouse B16 melanoma cells [1]; [5]): 16%; Cell Count (%) (Mouse B16 melanoma cells [2]; [3]): 101%; Cell Count (%) (Mouse B16 melanoma cells [2]; [4]): 102%; Cell Count (%) (Mouse B16 melanoma cells [2]; [5]): 93%

**Q.** How did the “Melanin Amount Ratio (%)” value (Mouse B16 melanoma cells [1]; [6]) turn out when `CC(C)c1ccc(O)cc1O` [Comparative Compound 2, 4-isopropylresorcinol] was run?
**A.** The value was 32%.

**Q.** And the “Melanin Amount Ratio (%)” value (Mouse B16 melanoma cells [1]; [7])?
**A.** Its value is 17%.

**Q.** And the “Melanin Amount Ratio (%)” value (Mouse B16 melanoma cells [1]; [8])?
**A.** The value was 12%.

**Q.** And the “Cell Count (%)” value (Mouse B16 melanoma cells [2]; [6])?
**A.** The value was 99%.

**Q.** What about the “Cell Count (%)” value (Mouse B16 melanoma cells [2]; [7]) of the same molecule?
**A.** The value was 97%.

**Q.** What about the “Cell Count (%)” value (Mouse B16 melanoma cells [2]; [8]) of the same molecule?
**A.** The value was 98%.

**Q.** What does the source list for `Oc1ccc(C2CCCCC2)c(O)c1` [Comparative Compound 3, 4-cyclohexylresorcinol]?
**A.** Melanin Amount Ratio (%) (Mouse B16 melanoma cells [1]; [9]): 43%; Melanin Amount Ratio (%) (Mouse B16 melanoma cells [1]; [10]): 22%; Melanin Amount Ratio (%) (Mouse B16 melanoma cells [1]; [11]): 17%; Cell Count (%) (Mouse B16 melanoma cells [2]; [9]): 99%; Cell Count (%) (Mouse B16 melanoma cells [2]; [10]): 98%; Cell Count (%) (Mouse B16 melanoma cells [2]; [11]): 76%

**Q.** What does the source list for `CCc1ccc(OP(=O)(O)O)cc1OP(=O)(O)O` [Compound 1, 1,3-bisphosphonooxy-4-ethylbenzene]?
**A.** Melanin Amount Ratio (%) (Mouse B16 melanoma cells [1]; [12]): 62%; Melanin Amount Ratio (%) (Mouse B16 melanoma cells [1]; [13]): 25%; Melanin Amount Ratio (%) (Mouse B16 melanoma cells [1]; [14]): 16%; Cell Count (%) (Mouse B16 melanoma cells [2]; [12]): 101%; Cell Count (%) (Mouse B16 melanoma cells [2]; [13]): 108%; Cell Count (%) (Mouse B16 melanoma cells [2]; [14]): 113%

**Q.** With `CC(C)c1ccc(OP(=O)(O)O)cc1OP(=O)(O)O` [Compound 2, 1,3-bisphosphonooxy-4-isopropylbenzene] as the molecule, how does the “Melanin Amount Ratio (%)” value (Mouse B16 melanoma cells [1]; [12]) read?
**A.** The value was 47%.

**Q.** And the “Melanin Amount Ratio (%)” value (Mouse B16 melanoma cells [1]; [15])?
**A.** Its value is 16%.

**Q.** What about the “Melanin Amount Ratio (%)” value (Mouse B16 melanoma cells [1]; [16]) of the same molecule?
**A.** Its value is 13%.

**Q.** And the “Cell Count (%)” value (Mouse B16 melanoma cells [2]; [12])?
**A.** Its value is 99%.

**Q.** What about the “Cell Count (%)” value (Mouse B16 melanoma cells [2]; [15]) of the same molecule?
**A.** Its value is 95%.

**Q.** What about the “Cell Count (%)” value (Mouse B16 melanoma cells [2]; [16]) of the same molecule?
**A.** Its value is 103%.

**Q.** What does the source list for `O=P(O)(O)Oc1ccc(C2CCCCC2)c(OP(=O)(O)O)c1` [Compound 3, 1,3-bisphosphonooxy-4-cyclohexylbenzene]?
**A.** Melanin Amount Ratio (%) (Mouse B16 melanoma cells [1]; [17]): 48%; Melanin Amount Ratio (%) (Mouse B16 melanoma cells [1]; [18]): 20%; Melanin Amount Ratio (%) (Mouse B16 melanoma cells [1]; [19]): 15%; Cell Count (%) (Mouse B16 melanoma cells [2]; [17]): 102%; Cell Count (%) (Mouse B16 melanoma cells [2]; [18]): 105%; Cell Count (%) (Mouse B16 melanoma cells [2]; [19]): 101%
